According to patent US20250154138A1, “Small Molecule IL-17A Modulators” (BeiGene, Ltd., priority 2022, published 2025):

Molecular target: human IL-17A / human IL-17RA (Homo sapiens (Human), UniProt Q16552)
Assay: Human IL-17A biochemical assay (HTRF, blocking of IL-17A binding to IL-17RA)
Settings: 0.4 nM IL-17A, 0.3 nM IL-17RA, max compound concentration 10 uM
Experimental: Compounds disclosed herein were tested for blocking of human IL-17A (Cat: C774, novoprotein) protein with its receptor human IL-17RA (Cat: C153, novoprotein) in an assay based on Homogeneous Time Resolved Fluorescence. 0.4 nM recombinant human IL-17A protein was pre-incubated with a serial dilution of compounds disclosed herein (maximum concentration is 10 uM, 2.7-fold serially diluted, 10 points) at room temperature for 3 hours in an assay buffer containing 20 mM HEPES, pH 7.5, 50 mM NaCl, 0.1% BSA, 0.2 mM DTT, 0.005% Tween 20. Then 0.3 nM recombinant human IL-17RA was added to plate and further incubated at room temperature for 1 hour. After that Mab Anti-6His Tb cryptate Gold (Cat: 61HI2TLB, Cisbio Bioassays) and MAb Anti Human IgG-XL665 (Cat: 61HFCXLB, Cisbio Bioassays) were added to plate and further incubated at room temperature for 1 hour. The HTRF signals (ex337 nm, em620 nm/665 nm) were read on BMG PHERAstar FSX instrument. The inhibition percentage of human IL-17A interaction with its receptor human IL-17RA in presence of increasing concentrations of compounds was calculated based on the ratio of […]. The IC50 for each compound was derived from fitting the data to the four-parameter logistic equation by Dotmatics.

human IL-17A / human IL-17RA, sequence (Q16552 24-155): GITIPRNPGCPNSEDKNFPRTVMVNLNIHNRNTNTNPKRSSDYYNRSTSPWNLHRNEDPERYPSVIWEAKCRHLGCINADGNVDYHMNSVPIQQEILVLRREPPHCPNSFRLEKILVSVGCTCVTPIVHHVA

SMILES	IC50
CC[C@H]1CN(C2(C(=O)NC)Cc3cc4nc([C@@H](NC(=O)c5nonc5C)C5CCCCC5)[nH]c4cc3C2)C(=O)N1 [Example 33, N-((1S)-cyclohexyl(6-((S)-4-ethyl-2-oxoimidazolidin-1-yl)-6-(methylcarbamoyl)-1,5,6,7-tetrahydroindeno[5,6-d]imidazol-2-yl)methyl)-4-methyl-1,2,5-oxadiazole-3-carboxamide]	2.04 µM
CNC(=O)C1(N2CC(CC(C)C)NC2=O)Cc2ccc(NC(=O)[C@@H](NC(=O)c3ccnn3C)C3CCCCC3)cc2C1 (stereo partly drawn) [Example 24, N-((1S)-1-cyclohexyl-2-((2-(4-isobutyl-2-oxoimidazolidin-1-yl)-2-(methylcarbamoyl)-2,3-dihydro-1H-inden-5-yl)amino)-2-oxoethyl)-1-methyl-1H-pyrazole-5-carboxamide]	2.34 µM
CNC(=O)C1(N2CC(CC3CCCCC3)NC2=O)Cc2ccc(NC(=O)[C@@H](NC(=O)c3ccnn3C)C3CCCCC3)cc2C1 (stereo partly drawn) [Example 88, N-((1S)-1-cyclohexyl-2-((2-(4-(cyclohexylmethyl)-2-oxoimidazolidin-1-yl)-2-(methylcarbamoyl)-2,3-dihydro-1H-inden-5-yl)amino)-2-oxoethyl)-1-methyl-1H-pyrazole-5-carboxamide]	2.06 µM
CNC(=O)C1(N2CC(c3ccccc3)NC2=O)Cc2ccc(NC(=O)[C@@H](NC(=O)c3ccnn3C)C3CCCCC3)cc2C1 (stereo partly drawn) [Example 36, N-((1S)-1-cyclohexyl-2-((2-(methylcarbamoyl)-2-(2-oxo-4-phenylimidazolidin-1-yl)-2,3-dihydro-1H-inden-5-yl)amino)-2-oxoethyl)-1-methyl-1H-pyrazole-5-carboxamide]	2.43 µM
CNC(=O)C1(N2C[C@@H](C(C)C)NC2=O)Cc2ccc(NC(=O)[C@@H](NC(=O)c3ccnn3C)C3CCC3)cc2C1 (stereo partly drawn) [Example 45, N-((1S)-1-cyclobutyl-2-((2-((R)-4-isopropyl-2-oxoimidazolidin-1-yl)-2-(methylcarbamoyl)-2,3-dihydro-1H-inden-5-yl)amino)-2-oxoethyl)-1-methyl-1H-pyrazole-5-carboxamide]	5.13 µM
CNC(=O)C1(N2CC(C)NC2=O)Cc2ccc(NC(=O)[C@H](CC3CCCCC3)NC(=O)c3ccnn3C)cc2C1 (stereo partly drawn) [Example 16, N-((2S)-3-cyclohexyl-1-((2-(4-methyl-2-oxoimidazolidin-1-yl)-2-(methylcarbamoyl)-2,3-dihydro-1H-inden-5-yl)amino)-1-oxopropan-2-yl)-1-methyl-1H-pyrazole-5-carboxamide]	5 µM
CNC(=O)C1(N2CC(C(C)(C)O)NC2=O)Cc2ccc(NC(=O)[C@@H](NC(=O)c3ccnn3C)C3CCCCC3)cc2C1 (stereo partly drawn) [Example 42, N-((1S)-1-cyclohexyl-2-((2-(4-(2-hydroxypropan-2-yl)-2-oxoimidazolidin-1-yl)-2-(methylcarbamoyl)-2,3-dihydro-1H-inden-5-yl)amino)-2-oxoethyl)-1-methyl-1H-pyrazole-5-carboxamide]	3.17 µM
CNC(=O)C1(N2C[C@@H](CCc3ccccc3)NC2=O)Cc2ccc(NC(=O)[C@@H](NC(=O)c3ccnn3C)C3CCCCC3)cc2C1 (stereo partly drawn) [Example 96, N-((1S)-1-cyclohexyl-2-((2-(methylcarbamoyl)-2-((R)-2-oxo-4-phenethylimidazolidin-1-yl)-2,3-dihydro-1H-inden-5-yl)amino)-2-oxoethyl)-1-methyl-1H-pyrazole-5-carboxamide]	2.32 µM
CNC(=O)C1(N2C[C@@H](C(C)C)NC2=O)Cc2ccc(NC(=O)[C@@H](NC(=O)c3ccnn3C)C3CCOCC3)cc2C1 (stereo partly drawn) [Example 85, N-((1S)-2-((2-((R)-4-isopropyl-2-oxoimidazolidin-1-yl)-2-(methylcarbamoyl)-2,3-dihydro-1H-inden-5-yl)amino)-2-oxo-1-(tetrahydro-2H-pyran-4-yl)ethyl)-1-methyl-1H-pyrazole-5-carboxamide]	10.1 µM
CNC(=O)C1(N2C[C@@H](C(C)C)NC2=O)Cc2ccc(NC(=O)C(NC(=O)c3ccnn3C)C3CCC(OC)CC3)cc2C1 (stereo partly drawn) [Example 72, N-(2-((2-((R)-4-isopropyl-2-oxoimidazolidin-1-yl)-2-(methylcarbamoyl)-2,3-dihydro-1H-inden-5-yl)amino)-1-(4-methoxycyclohexyl)-2-oxoethyl)-1-methyl-1H-pyrazole-5-carboxamide]	3.63 µM
CNC(=O)C1(N2C[C@@H](C3CCCCC3)NC2=O)Cc2ccc(NC(=O)[C@@H](NC(=O)c3ccnn3C)C3CCCCC3)cc2C1 (stereo partly drawn) [Example 25, N-((1S)-1-cyclohexyl-2-((2-((R)-4-cyclohexyl-2-oxoimidazolidin-1-yl)-2-(methylcarbamoyl)-2,3-dihydro-1H-inden-5-yl)amino)-2-oxoethyl)-1-methyl-1H-pyrazole-5-carboxamide]	6.3 µM
CNC(=O)C1(N2CC3(CC3)CNC2=O)Cc2ccc(NC(=O)[C@@H](NC(=O)c3cnc4c(C#N)cccn34)C3CCCCC3)cc2C1 (stereo partly drawn) [Example 180, 8-cyano-N-((1S)-1-cyclohexyl-2-((2-(methylcarbamoyl)-2-(6-oxo-5,7-diazaspiro[2.5]octan-5-yl)-2,3-dihydro-1H-inden-5-yl)amino)-2-oxoethyl)imidazo[1,2-a]pyridine-3-carboxamide]	3.68 µM
CNC(=O)C1(N2C[C@@H](C(C)C)NC2=O)Cc2ccc(NC(=O)[C@@H](NC(=O)C3CC3)C3CCCCC3)cc2C1 (stereo partly drawn) [Example 49, 5-((S)-2-cyclohexyl-2-(cyclopropanecarboxamido)acetamido)-2-((R)-4-isopropyl-2-oxoimidazolidin-1-yl)-N-methyl-2,3-dihydro-1H-indene-2-carboxamide]	1.81 µM
Cc1nonc1C(=O)N[C@H](C(=O)Nc1ccc2c(c1)CC(C(=O)Nc1ccc(Cl)cc1Cl)(N1C[C@@H](C(C)C)NC1=O)C2)C(C1CC1)C1CC1 (stereo partly drawn) [Example 264, N-((2S)-1,1-dicyclopropyl-3-((2-((2,4-dichlorophenyl)carbamoyl)-2-((R)-4-isopropyl-2-oxoimidazolidin-1-yl)-2,3-dihydro-1H-inden-5-yl)amino)-3-oxopropan-2-yl)-4-methyl-1,2,5-oxadiazole-3-carboxamide]	2.54 µM
CNC(=O)C1(N2C[C@@H](C(C)C)NC2=O)Cc2ccc(NC(=O)C(Cc3cc(Cl)ccc3Cl)NC(=O)c3ccnn3C)cc2C1 (stereo partly drawn) [Example 127, N-(3-(2,5-dichlorophenyl)-1-((2-((R)-4-isopropyl-2-oxoimidazolidin-1-yl)-2-(methylcarbamoyl)-2,3-dihydro-1H-inden-5-yl)amino)-1-oxopropan-2-yl)-1-methyl-1H-pyrazole-5-carboxamide]	0.698 µM
CNC(=O)C1(N2CC3(CC3)CNC2=O)Cc2ccc(NC(=O)[C@@H](NC(=O)c3ccn(C4CC(O)C4)n3)C3CCCCC3)cc2C1 (stereo partly drawn) [Example 133, N-((1S)-1-cyclohexyl-2-((2-(methylcarbamoyl)-2-(6-oxo-5,7-diazaspiro[2.5]octan-5-yl)-2,3-dihydro-1H-inden-5-yl)amino)-2-oxoethyl)-1-(3-hydroxycyclobutyl)-1H-pyrazole-3-carboxamide]	0.32 µM
CNC(=O)C1(N2CC(C3CCOC3)NC2=O)Cc2ccc(NC(=O)[C@@H](NC(=O)c3ccnn3C)C3CCCCC3)cc2C1 (stereo partly drawn) [Example 34, N-((1S)-1-cyclohexyl-2-((2-(methylcarbamoyl)-2-(2-oxo-4-(tetrahydrofuran-3-yl)imidazolidin-1-yl)-2,3-dihydro-1H-inden-5-yl)amino)-2-oxoethyl)-1-methyl-1H-pyrazole-5-carboxamide]	8.4 µM
